Toxic doses and inconclusive results are not listed. How the source made its calls: active means survival T/C of 150% or more; inactive means T/C below 125% in these data.
Tested on: CD2F1 mice, L1210 leukemia ip, survival T/C
Experiment: NCI In Vivo Anticancer Drug Screen. Data for tumor model L1210 Leukemia (intraperitoneal) in CD2F1 (CDF1) mice
Conditions: endpoint: mean survival time, higher = longer survival
In short: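 Compound-dosed mice with transplantable tumor versus matched vehicle controls; endpoint ratio T/C reported.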

Measured: T/C

CCCCCCCSc1nc2ccccc2s1
inactive: dose: 100.0 mg/kg/injection, schedule: Q04DX002 (ip), vehicle: saline with Tween-80 95 % of control | dose: 200.0 mg/kg/injection, schedule: Q04DX002 (ip), vehicle: saline with Tween-80 98 % of control | dose: 400.0 mg/kg/injection, schedule: Q04DX002 (ip), vehicle: saline with Tween-80 90 % of control

Nc1nc(=S)c2ncn(C3CC(O)C(CO)C3)c2[nH]1 (stereo unspecified)
inactive: dose: 50.0 mg/kg/injection, schedule: Q01DX009 (ip), vehicle: Klucel (hydroxypropylcellulose) (HPC) 94 % of control | dose: 100.0 mg/kg/injection, schedule: Q01DX009 (ip), vehicle: Klucel (hydroxypropylcellulose) (HPC) 91 % of control | dose: 200.0 mg/kg/injection, schedule: Q01DX009 (ip), vehicle: Klucel (hydroxypropylcellulose) (HPC) 108 % of control
